Measured values reported in PubChem BioAssay AID248 (DTP/NCI, 2004).
“And” between values parts separate entries of the source, which are not always exact repeats. Equal entries are not always repeated. Inconclusive results and toxic doses are left out.

Test system: L1210 leukemia ip in BDF1 mice, survival T/C
Assay: NCI In Vivo Anticancer Drug Screen. Data for tumor model L1210 Leukemia (intraperitoneal) in B6D2F1 (BDF1) mice
Conditions: endpoint: mean survival time, higher = longer survival
How it was run: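 Read-out is survival time, reported as the treated-group measurement over the vehicle-control measurement.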

[1] = dose: 6.25 mg/kg/injection, schedule: Q01DX009 (ip), vehicle: saline
[2] = dose: 12.5 mg/kg/injection, schedule: Q01DX009 (ip), vehicle: saline
[3] = dose: 25.0 mg/kg/injection, schedule: Q01DX009 (ip), vehicle: saline
[4] = dose: 50.0 mg/kg/injection, schedule: Q01DX009 (ip), vehicle: saline
[5] = dose: 50.0 mg/kg/injection, schedule: Q04DX003 (ip), vehicle: saline
[6] = dose: 100.0 mg/kg/injection, schedule: Q04DX003 (ip), vehicle: saline
[7] = dose: 100.0 mg/kg/injection, schedule: Q01DX009 (ip), vehicle: saline with Tween-80
[8] = dose: 200.0 mg/kg/injection, schedule: Q01DX009 (ip), vehicle: saline with Tween-80
[9] = dose: 200.0 mg/kg/injection, schedule: Q04DX003 (ip), vehicle: saline
[10] = dose: 100.0 mg/kg/injection, schedule: Q04DX003 (ip), vehicle: saline with Tween-80
[11] = dose: 200.0 mg/kg/injection, schedule: Q04DX003 (ip), vehicle: saline with Tween-80
[12] = dose: 100.0 mg/kg/injection, schedule: Q01DX001 (ip), vehicle: saline
[13] = dose: 200.0 mg/kg/injection, schedule: Q01DX001 (ip), vehicle: saline
[14] = dose: 400.0 mg/kg/injection, schedule: Q01DX001 (ip), vehicle: saline
[15] = dose: 100.0 mg/kg/injection, schedule: Q04DX003 (ip), vehicle: Klucel (hydroxypropylcellulose) (HPC)
[16] = dose: 200.0 mg/kg/injection, schedule: Q04DX003 (ip), vehicle: Klucel (hydroxypropylcellulose) (HPC)
[17] = dose: 400.0 mg/kg/injection, schedule: Q04DX003 (ip), vehicle: Klucel (hydroxypropylcellulose) (HPC)
[18] = dose: 100.0 mg/kg/injection, schedule: Q01DX009 (ip), vehicle: Klucel (hydroxypropylcellulose) (HPC)
[19] = dose: 50.0 mg/kg/injection, schedule: Q01DX009 (ip), vehicle: Klucel (hydroxypropylcellulose) (HPC)
[20] = dose: 50.0 mg/kg/injection, schedule: Q01DX001 (ip), vehicle: saline

## COC(=O)C(c1ccccc1)C1CCCCN1 (stereo not drawn)
[1]
  T/C: 105 % of control
[2]
  T/C: 98 % of control
[3]
  T/C: 96 % of control
dose: 25.0 mg/kg/injection, schedule: Q04DX003 (ip), vehicle: saline
  T/C: 97 % of control
[4]
  T/C: 100 % of control
[5]
  T/C: 97 % of control
[6]
  T/C: 108 % of control

## Cc1nc(N)[nH]c(=O)c1CCCNS(=O)(=O)c1ccc(CNC(=O)CBr)cc1
dose: 37.5 mg/kg/injection, schedule: Q01DX001 (ip), vehicle: Klucel (hydroxypropylcellulose) (HPC)
  T/C: 107 % of control
dose: 75.0 mg/kg/injection, schedule: Q01DX001 (ip), vehicle: Klucel (hydroxypropylcellulose) (HPC)
  T/C: 94 % of control
dose: 150.0 mg/kg/injection, schedule: Q01DX001 (ip), vehicle: Klucel (hydroxypropylcellulose) (HPC)
  T/C: 96 % of control

## CCN(CCOC(=O)Nc1ccccc1F)c1ccccc1
[7]
  T/C: 98 % of control
[8]
  T/C: 115 % of control
dose: 400.0 mg/kg/injection, schedule: Q01DX009 (ip), vehicle: saline with Tween-80
  T/C: 112 % of control

## CC(=O)C12OC(C)(C)OC1CC1C3CCC4=CC(=O)CCC4(C)C3CCC12C (stereo not drawn)
dose: 12.5 mg/kg/injection, schedule: Q04DX002 (ip), vehicle: Klucel (hydroxypropylcellulose) (HPC)
  T/C: 108 % of control
dose: 25.0 mg/kg/injection, schedule: Q04DX002 (ip), vehicle: Klucel (hydroxypropylcellulose) (HPC)
  T/C: 108 % of control
dose: 50.0 mg/kg/injection, schedule: Q04DX002 (ip), vehicle: Klucel (hydroxypropylcellulose) (HPC)
  T/C: 94 % of control

## C[PH+](c1ccccc1)c1ccccc1.C[PH+](c1ccccc1)c1ccccc1.O=C([S-])[S-].[Pd+2]
[5]
  T/C: 100 % of control
[6]
  T/C: 100 % of control
[9]
  T/C: 94 % of control

## O=C(Nc1cccc2ccccc12)C(Cl)Cl
dose: 100.0 mg/kg/injection, schedule: Q04DX002 (ip), vehicle: Klucel (hydroxypropylcellulose) (HPC)
  T/C: 100 % of control
dose: 200.0 mg/kg/injection, schedule: Q04DX002 (ip), vehicle: Klucel (hydroxypropylcellulose) (HPC)
  T/C: 93 % of control
dose: 400.0 mg/kg/injection, schedule: Q04DX002 (ip), vehicle: Klucel (hydroxypropylcellulose) (HPC)
  T/C: 93 % of control

## CC(=Nc1ccccc1)C1=C(O)C(Cc2ccccc2)NC1=O (stereo not drawn)
dose: 50.0 mg/kg/injection, schedule: Q01DX001 (ip), vehicle: carboxymethylcellulose (CMC)
  T/C: 101 % of control
dose: 100.0 mg/kg/injection, schedule: Q01DX001 (ip), vehicle: carboxymethylcellulose (CMC)
  T/C: 103 % of control
dose: 178.0 mg/kg/injection, schedule: Q01DX001 (ip), vehicle: carboxymethylcellulose (CMC)
  T/C: 101 % of control and 102 % of control
dose: 200.0 mg/kg/injection, schedule: Q01DX001 (ip), vehicle: carboxymethylcellulose (CMC)
  T/C: 120 % of control
dose: 267.0 mg/kg/injection, schedule: Q01DX001 (ip), vehicle: carboxymethylcellulose (CMC)
  T/C: 101 % of control and 109 % of control
dose: 400.0 mg/kg/injection, schedule: Q01DX001 (ip), vehicle: carboxymethylcellulose (CMC)
  T/C: 101 % of control and 117 % of control

## O=C(C[n+]1ccc(-c2ccccc2)cc1)c1ccccc1
[6]
  T/C: 109 % of control
[9]
  T/C: 105 % of control

## c1ccc(P2(c3ccccc3)(c3ccccc3)C3C4C5C6C4C2C6C53)cc1 (stereo not drawn)
[10]
  T/C: 104 % of control
[11]
  T/C: 109 % of control
dose: 400.0 mg/kg/injection, schedule: Q04DX003 (ip), vehicle: saline with Tween-80
  T/C: 90 % of control

## O=[N+]([O-])c1ccccc1N=Nc1c(O)[nH]c2c(Cl)cccc12
[12]
  T/C: 97 % of control
[13]
  T/C: 100 % of control
[14]
  T/C: 97 % of control

## CCCC/C(I)=C\S(=O)(=O)c1ccc(C)cc1
[12]
  T/C: 113 % of control
[13]
  T/C: 86 % of control
[14]
  T/C: 96 % of control

## O=C(OC(C(=O)O)C(OC(=O)c1ccccc1)C(=O)O)c1ccccc1 (stereo not drawn) (tested in a mixture with another compound)
dose: 15.0 mg/kg/injection, schedule: Q01DX001 (ip), vehicle: carboxymethylcellulose (CMC)
  T/C: 102 % of control
dose: 100.0 mg/kg/injection, schedule: Q01DX001 (ip), vehicle: other
  T/C: 109 % of control
dose: 200.0 mg/kg/injection, schedule: Q01DX001 (ip), vehicle: other
  T/C: 102 % of control
dose: 400.0 mg/kg/injection, schedule: Q01DX001 (ip), vehicle: other
  T/C: 109 % of control

## CCC(=O)NC1=C(N2CC2C)C(=O)C(NC(=O)CC)=C(N2CC2C)C1=O (stereo not drawn)
dose: 3.12 mg/kg/injection, schedule: Q01DX009 (ip), vehicle: saline
  T/C: 111 % of control
[1]
  T/C: 124 % of control
[2]
  T/C: 153 % of control
[3]
  T/C: 177 % of control
dose: 35.0 mg/kg/injection, schedule: Q01DX009 (ip), vehicle: Klucel (hydroxypropylcellulose) (HPC)
  T/C: 103 % of control

## S=c1[nH]nc2ccccn12
[15]
  T/C: 100 % of control
[16]
  T/C: 94 % of control
[17]
  T/C: 94 % of control

## O=C(CCCl)Oc1c(Cl)c(Cl)c(Cl)c(Cl)c1Cl
dose: 50.0 mg/kg/injection, schedule: Q01DX001 (ip), vehicle: saline with Tween-80
  T/C: 98 % of control
dose: 50.0 mg/kg/injection, schedule: Q01DX009 (ip), vehicle: saline with Tween-80
  T/C: 111 % of control
dose: 50.0 mg/kg/injection, schedule: Q04DX003 (ip), vehicle: saline with Tween-80
  T/C: 95 % of control
dose: 100.0 mg/kg/injection, schedule: Q01DX001 (ip), vehicle: saline with Tween-80
  T/C: 96 % of control
[7]
  T/C: 103 % of control
[10]
  T/C: 97 % of control
dose: 200.0 mg/kg/injection, schedule: Q01DX001 (ip), vehicle: saline with Tween-80
  T/C: 100 % of control
[8]
  T/C: 100 % of control
[11]
  T/C: 93 % of control

## CC(=O)C1CCCC23CC(CC12)C(C)(C)C3OC=O (stereo not drawn)
[18]
  T/C: 96 % of control
[15]
  T/C: 90 % of control
dose: 200.0 mg/kg/injection, schedule: Q01DX009 (ip), vehicle: Klucel (hydroxypropylcellulose) (HPC)
  T/C: 100 % of control
[16]
  T/C: 92 % of control
dose: 400.0 mg/kg/injection, schedule: Q01DX009 (ip), vehicle: Klucel (hydroxypropylcellulose) (HPC)
  T/C: 107 % of control
[17]
  T/C: 95 % of control

## CCN(CC)Cc1cc(Nc2c(C)cnc3cc(Cl)ccc23)ccc1O
[3]
  T/C: 94 % of control
[4]
  T/C: 90 % of control

## CN(C)CCC(O)(Cc1ccccc1)c1ccccc1 (stereo not drawn)
[19]
  T/C: 95 % of control
[18]
  T/C: 101 % of control
[15]
  T/C: 95 % of control
[16]
  T/C: 101 % of control

## Cc1cc(C(=O)NNCc2ccccc2)no1
dose: 12.5 mg/kg/injection, schedule: Q01DX009 (ip), vehicle: Klucel (hydroxypropylcellulose) (HPC)
  T/C: 102 % of control
dose: 25.0 mg/kg/injection, schedule: Q01DX009 (ip), vehicle: Klucel (hydroxypropylcellulose) (HPC)
  T/C: 96 % of control
[19]
  T/C: 97 % of control

## COc1ccc2c(c1)Cc1c-2nc2ccccc2c1Cl
[20]
  T/C: 101 % of control
[12]
  T/C: 93 % of control
[13]
  T/C: 96 % of control
[14]
  T/C: 100 % of control

## CCOC(=O)c1c[nH]c2c(Cl)cccc2c1=O
[20]
  T/C: 97 % of control
[12]
  T/C: 100 % of control
[13]
  T/C: 94 % of control
[14]
  T/C: 94 % of control

## O=[N+]([O-])c1ccc(Cl)nc1
[12]
  T/C: 103 % of control
dose: 100.0 mg/kg/injection, schedule: Q01DX009 (ip), vehicle: saline sonified
  T/C: 100 % of control
[13]
  T/C: 101 % of control
dose: 200.0 mg/kg/injection, schedule: Q01DX009 (ip), vehicle: saline sonified
  T/C: 104 % of control
[14]
  T/C: 103 % of control
